Drawing on BindingDB's records for PubMed 36332550 (Peking Union Medical College, 2022), this text covers IC50 for five compounds.

Usually IC50 stands for the concentration at which inhibition is half-maximal.

The target in assay [1] is T1, Zinc finger protein GLI1 (Homo sapiens, UniProt P08151).
T1 sequence (P08151 whole entry): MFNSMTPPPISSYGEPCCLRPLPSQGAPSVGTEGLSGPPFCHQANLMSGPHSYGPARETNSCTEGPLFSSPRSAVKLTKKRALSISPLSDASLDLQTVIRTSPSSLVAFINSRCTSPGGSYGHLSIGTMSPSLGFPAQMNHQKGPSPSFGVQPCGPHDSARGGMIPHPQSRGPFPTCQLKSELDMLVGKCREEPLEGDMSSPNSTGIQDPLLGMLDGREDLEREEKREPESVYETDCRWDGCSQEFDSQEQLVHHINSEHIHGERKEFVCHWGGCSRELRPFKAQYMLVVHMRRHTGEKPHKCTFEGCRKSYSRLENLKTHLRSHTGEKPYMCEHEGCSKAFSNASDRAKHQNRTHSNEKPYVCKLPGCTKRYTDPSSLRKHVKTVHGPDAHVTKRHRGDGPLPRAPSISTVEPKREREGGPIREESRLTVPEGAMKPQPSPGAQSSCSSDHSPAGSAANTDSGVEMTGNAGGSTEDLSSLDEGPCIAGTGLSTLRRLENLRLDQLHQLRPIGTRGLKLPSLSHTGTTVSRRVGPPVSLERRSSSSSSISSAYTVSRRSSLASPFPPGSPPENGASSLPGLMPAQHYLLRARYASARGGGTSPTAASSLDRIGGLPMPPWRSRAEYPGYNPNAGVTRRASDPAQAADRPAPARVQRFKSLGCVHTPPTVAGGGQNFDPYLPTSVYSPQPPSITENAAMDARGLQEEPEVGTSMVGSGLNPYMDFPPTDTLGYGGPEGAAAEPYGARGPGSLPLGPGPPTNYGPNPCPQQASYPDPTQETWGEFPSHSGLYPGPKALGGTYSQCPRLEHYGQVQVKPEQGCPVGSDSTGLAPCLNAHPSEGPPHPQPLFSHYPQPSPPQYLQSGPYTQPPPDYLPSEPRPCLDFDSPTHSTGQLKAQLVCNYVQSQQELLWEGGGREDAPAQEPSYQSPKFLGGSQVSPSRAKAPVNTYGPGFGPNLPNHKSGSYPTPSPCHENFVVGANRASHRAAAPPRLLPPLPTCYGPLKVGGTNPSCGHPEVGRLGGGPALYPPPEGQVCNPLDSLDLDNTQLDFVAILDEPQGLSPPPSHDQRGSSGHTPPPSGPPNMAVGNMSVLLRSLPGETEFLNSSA
Briefly: Inhibition of GLI1 (unknown origin) transcriptional activity.

Assay [2] has as its target T1, Zinc finger protein GLI1. Description: Inhibition of GLI1-mediated transcriptional activity in human HaCaT cells coexpressing luciferase.

On Zinc finger protein GLI1 [1], `C[C@@]12C[C@H]3OC(=O)[C@@H]1CO[C@]14O[C@@]5([C@H]2C1=O)[C@@]3(C)OC(=O)[C@@]5(O)CC[C@H]1[C@H]4C[C@H]2O[C@]23CC=CC(=O)[C@]13C` registered an IC50 of 0.7 µM. That is a sub-micromolar value.
In turn, `O[C@H]1[C@H]2c3cc4c(cc3CN3CCC(=C[C@@H]1O)[C@H]23)OCO4` [9,10-(methylenedioxy)-3,12-didehydrogalanthan-1alpha,2beta-diol] registered an IC50 against Zinc finger protein GLI1 [2] of 19 µM.
Take `CO[C@H]1C=C[C@@]23c4cc5c(cc4CN(C[C@@H]2O)[C@H]3C1)OCO5` [CHEBI:3914]: the IC50 at Zinc finger protein GLI1 [2] was 4.7 µM.
With `C[C@]12C(=O)CC=CC1=CC[C@@H]1[C@@H]2CC[C@]2(O)C(=O)O[C@@]3(C)[C@H]4C[C@]5(C)[C@@H](CO[C@@]16O[C@@]32[C@H]5C6=O)C(=O)O4`, the IC50 against Zinc finger protein GLI1 [1] worked out at 4.2 µM. This counts as single-digit micromolar.
Still for that read-out and setting: the value for `C[C@]12C(=O)C=CCC1=CC[C@@H]1[C@@H]2CC[C@]2(O)C(=O)O[C@@]3(C)[C@H]4C[C@]5(C)[C@@H](CO[C@@]16O[C@@]32[C@H]5C6=O)C(=O)O4` [NSC-287088] was 0.6 µM.
